From US12201633B2, “Compounds and methods for treatment of visceral pain” (Arena Pharmaceuticals, Inc., priority 2017, dated 2025)
pEC50: −log10 of the molar value.

What was measured:
human CB2 receptor [1] = biological target: T1, human CB2 receptor (Homo sapiens, UniProt P34972); experiment: PathHunter β-arrestin assay, CB2
human CB2 receptor [2] = biological target: T1, human CB2 receptor; experiment: HTRF assay for direct cAMP measurement, CB2; format: cell-based; design: 93-0164 (CHO-K1 EA-Arrestin parental line); host or cells: CHO-K1 EA-Arrestin, clone #61
hCB1 = hCB1 (Homo sapiens, UniProt P21554); experiment: PathHunter β-arrestin assay, CB1
hCB1, sequence (P21554 whole entry): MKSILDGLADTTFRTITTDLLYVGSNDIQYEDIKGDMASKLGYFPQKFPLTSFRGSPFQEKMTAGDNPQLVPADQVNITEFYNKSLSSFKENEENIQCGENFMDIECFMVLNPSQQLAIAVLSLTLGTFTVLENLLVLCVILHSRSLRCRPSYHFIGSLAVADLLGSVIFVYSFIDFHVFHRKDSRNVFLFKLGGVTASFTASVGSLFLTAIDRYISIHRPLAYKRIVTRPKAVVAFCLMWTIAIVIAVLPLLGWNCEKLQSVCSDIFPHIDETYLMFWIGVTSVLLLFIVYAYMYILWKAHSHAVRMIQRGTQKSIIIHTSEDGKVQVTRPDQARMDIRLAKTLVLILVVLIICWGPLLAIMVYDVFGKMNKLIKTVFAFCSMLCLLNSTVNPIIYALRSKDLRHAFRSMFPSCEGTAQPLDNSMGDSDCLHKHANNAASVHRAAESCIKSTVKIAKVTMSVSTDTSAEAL

T1 sequence (P34972 whole entry): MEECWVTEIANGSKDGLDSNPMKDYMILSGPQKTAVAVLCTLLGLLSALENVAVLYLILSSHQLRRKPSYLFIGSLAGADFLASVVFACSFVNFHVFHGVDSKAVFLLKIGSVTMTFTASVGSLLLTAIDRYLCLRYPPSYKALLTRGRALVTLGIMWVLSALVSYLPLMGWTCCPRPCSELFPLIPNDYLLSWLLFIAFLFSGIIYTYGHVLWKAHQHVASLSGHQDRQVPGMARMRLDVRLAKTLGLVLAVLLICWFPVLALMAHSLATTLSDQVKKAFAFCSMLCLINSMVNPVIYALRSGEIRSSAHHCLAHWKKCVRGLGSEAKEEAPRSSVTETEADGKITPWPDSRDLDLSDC

With CC(C)(C)[C@@H](CO)NC(=O)c1nn(-c2cnccn2)c2c1C[C@@H]1C[C@H]21 [Compound 696, (1aS,5aS)-2-Pyrazin-2-yl-1a,2,5,5a-tetrahydro-1H-2,3-diaza-cyclopropa[a]pentalene-4-carboxylic acid ((S)-1-hydroxymethyl-2,2-dimethyl-propyl)-amide] the pEC50 (human CB2 receptor [1]) was 7.31 and the pEC50 (human CB2 receptor [2]) was 8.16.
Work on O=C(NC1(CO)CCC1)c1nn(-c2c[n+]([O-])ccn2)c2c1C[C@H]1C[C@@H]21 [Compound 698, (1aR,5aR)-2-(4-Oxy-pyrazin-2-yl)-1a,2,5,5a-tetrahydro-1H-2,3-diaza-cyclopropa[a]pentalene-4-carboxylic acid (1-hydroxymethyl-cyclobutyl)-amide] yielded a pEC50 (human CB2 receptor [1]) of 7.55 and a pEC50 (human CB2 receptor [2]) of 7.99.
Work on O=C(NC1(c2ccccn2)CCC1)c1nn(-c2c[n+]([O-])ccn2)c2c1C[C@@H]1C[C@H]21 [Compound 700, (1aS,5aS)-2-(4-Oxy-pyrazin-2-yl)-1a,2,5,5a-tetrahydro-1H-2,3-diaza-cyclopropa[a]pentalene-4-carboxylic acid (1-pyridin-2-yl-cyclobutyl)-amide] yielded a pEC50 (human CB2 receptor [1]) of 7.50 and a pEC50 (human CB2 receptor [2]) of 8.50.
Molecule CCNC(=O)[C@@H](NC(=O)c1nn(-c2c[n+]([O-])ccn2)c2c1C[C@H]1C[C@@H]21)C(C)(C)C [Compound 728, (1aR,5aR)-2-(4-Oxy-pyrazin-2-yl)-1a,2,5,5a-tetrahydro-1H-2,3-diaza-cyclopropa[a]pentalene-4-carboxylic acid ((S)-1-ethylcarbamoyl-2,2-dimethyl-propyl)-amide] has a pEC50 (human CB2 receptor [1]) of 8.96 and a pEC50 (hCB1) of 6.60.
O=C(NC1(C(F)(F)F)CCC1)c1nn(-c2c[n+]([O-])ccn2)c2c1C[C@@H]1C[C@H]21 [Compound 765, (1aS,5aS)-2-(4-Oxy-pyrazin-2-yl)-1a,2,5,5a-tetrahydro-1H-2,3-diaza-cyclopropa[a]pentalene-4-carboxylic acid (1-trifluoromethyl-cyclobutyl)-amide] showed a pEC50 (human CB2 receptor [1]) of 8.94 and a pEC50 (human CB2 receptor [2]) of 10.00.
Molecule CC(CO)(CO)NC(=O)c1nn(-c2cc(C#N)ccn2)c2c1C[C@H]1C[C@@H]21 [Compound 820, (1aR,5aR)-2-(4-Cyano-pyridin-2-yl)-1a,2,5,5a-tetrahydro-1H-2,3-diaza-cyclopropa[a]pentalene-4-carboxylic acid (2-hydroxy-1-hydroxymethyl-1-methyl-ethyl)-amide] has a pEC50 (human CB2 receptor [1]) of 7.42 and a pEC50 (human CB2 receptor [2]) of 8.58.
With CC1(NC(=O)c2nn(-c3c[n+]([O-])ccn3)c3c2C[C@H]2C[C@@H]32)CCC1 [Compound 821, (1aR,5aR)-2-(4-Oxy-pyrazin-2-yl)-1a,2,5,5a-tetrahydro-1H-2,3-diaza-cyclopropa[a]pentalene-4-carboxylic acid (1-methyl-cyclobutyl)-amide] the pEC50 (human CB2 receptor [1]) was 8.15 and the pEC50 (human CB2 receptor [2]) was 9.22.
O=C(N[C@H]1c2ccccc2C[C@H]1O)c1nn(-c2c[n+]([O-])ccn2)c2c1C[C@@H]1C[C@H]21 [Compound 921, (1aS,5aS)-2-(4-Oxy-pyrazin-2-yl)-1a,2,5,5a-tetrahydro-1H-2,3-diaza-cyclopropa[a]pentalene-4-carboxylic acid ((1S,2R)-2-hydroxy-indan-1-yl)-amide] was tested, and the pEC50 (human CB2 receptor [1]) was 8.59 and the pEC50 (human CB2 receptor [2]) was 9.70.
In the case of O=C(NC1(CF)CCC1)c1nn(-c2c[n+]([O-])ccn2)c2c1C[C@@H]1C[C@H]21 [Compound 924, (1aS,5aS)-2-(4-Oxy-pyrazin-2-yl)-1a,2,5,5a-tetrahydro-1H-2,3-diaza-cyclopropa[a]pentalene-4-carboxylic acid (1-fluoromethyl-cyclobutyl)-amide], the pEC50 (human CB2 receptor [1]) was 7.98 and the pEC50 (human CB2 receptor [2]) was 9.10.
In the case of O=C(NC1(C(F)(F)F)CCC1)c1nn(-c2cnccn2)c2c1C[C@@H]1C[C@H]21 [Compound 926, (1aS,5aS)-2-Pyrazin-2-yl-1a,2,5,5a-tetrahydro-1H-2,3-diaza-cyclopropa[a]pentalene-4-carboxylic acid (1-trifluoromethyl-cyclobutyl)-amide], the pEC50 (human CB2 receptor [1]) was 8.35 and the pEC50 (human CB2 receptor [2]) was 9.70.
